Experimental data reported in patent US20250235543A1, “MODIFIED PROTEINS AND PROTEIN DEGRADERS” (Cullgen (Shanghai), Inc., priority 2021, published 2025).
Like-named read-outs stand apart in the source and are kept apart here.

Columns and labels:
[1] = test system: cyclin D1; assay: Cyclin D1 percentage degradation in Calu-1 cells (immunoblotting); assay type: cell-based; conditions: 16 hours
In short: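 Cells were rinsed once in cold PBS and lysed in cold RIPA buffer containing protease and phosphatase inhibitors, with gentle agitation at 4° C. for 30 min. Lysates were spun at 13,000 rpm for 10 min at 4° C., protein was measured by BCA, and samples were boiled in Laemmli buffer at 99° C. for 5 min before SDS-PAGE immunoblotting.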

[2] = biological target: T1, CDK4 (Homo sapiens, UniProt P11802); assay: CDK4 percentage degradation in Calu-1 cells (immunoblotting); assay type: cell-based; conditions: for inhibition at 0.2 µM: read-out: CDK4 Degradation (200 nM); for inhibition at 10 µM: read-out: CDK4 Degradation (10 μM)
T1 construct: endogenous in cells; host or cells: Calu-1
T1 sequence (P11802 2-303 limits assumed): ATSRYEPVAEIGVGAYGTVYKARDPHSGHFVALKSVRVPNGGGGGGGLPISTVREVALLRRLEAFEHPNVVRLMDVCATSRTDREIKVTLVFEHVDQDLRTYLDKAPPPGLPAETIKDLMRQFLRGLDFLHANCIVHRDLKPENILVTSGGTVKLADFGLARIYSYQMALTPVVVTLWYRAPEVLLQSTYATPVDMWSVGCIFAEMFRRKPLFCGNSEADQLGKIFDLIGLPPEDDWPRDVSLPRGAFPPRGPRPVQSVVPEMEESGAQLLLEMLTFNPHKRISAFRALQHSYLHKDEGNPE
T1 sequence (P24385 whole entry partner): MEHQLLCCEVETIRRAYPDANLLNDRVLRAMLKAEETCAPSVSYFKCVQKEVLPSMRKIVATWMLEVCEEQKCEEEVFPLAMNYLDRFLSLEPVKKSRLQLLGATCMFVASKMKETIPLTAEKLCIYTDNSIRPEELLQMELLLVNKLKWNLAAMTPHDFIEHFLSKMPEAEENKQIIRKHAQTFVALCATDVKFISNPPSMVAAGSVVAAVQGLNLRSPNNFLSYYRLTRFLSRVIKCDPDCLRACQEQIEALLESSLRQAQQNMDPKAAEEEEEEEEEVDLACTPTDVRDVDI
T1 sequence (Q16531 2-1140 limits assumed, further chain): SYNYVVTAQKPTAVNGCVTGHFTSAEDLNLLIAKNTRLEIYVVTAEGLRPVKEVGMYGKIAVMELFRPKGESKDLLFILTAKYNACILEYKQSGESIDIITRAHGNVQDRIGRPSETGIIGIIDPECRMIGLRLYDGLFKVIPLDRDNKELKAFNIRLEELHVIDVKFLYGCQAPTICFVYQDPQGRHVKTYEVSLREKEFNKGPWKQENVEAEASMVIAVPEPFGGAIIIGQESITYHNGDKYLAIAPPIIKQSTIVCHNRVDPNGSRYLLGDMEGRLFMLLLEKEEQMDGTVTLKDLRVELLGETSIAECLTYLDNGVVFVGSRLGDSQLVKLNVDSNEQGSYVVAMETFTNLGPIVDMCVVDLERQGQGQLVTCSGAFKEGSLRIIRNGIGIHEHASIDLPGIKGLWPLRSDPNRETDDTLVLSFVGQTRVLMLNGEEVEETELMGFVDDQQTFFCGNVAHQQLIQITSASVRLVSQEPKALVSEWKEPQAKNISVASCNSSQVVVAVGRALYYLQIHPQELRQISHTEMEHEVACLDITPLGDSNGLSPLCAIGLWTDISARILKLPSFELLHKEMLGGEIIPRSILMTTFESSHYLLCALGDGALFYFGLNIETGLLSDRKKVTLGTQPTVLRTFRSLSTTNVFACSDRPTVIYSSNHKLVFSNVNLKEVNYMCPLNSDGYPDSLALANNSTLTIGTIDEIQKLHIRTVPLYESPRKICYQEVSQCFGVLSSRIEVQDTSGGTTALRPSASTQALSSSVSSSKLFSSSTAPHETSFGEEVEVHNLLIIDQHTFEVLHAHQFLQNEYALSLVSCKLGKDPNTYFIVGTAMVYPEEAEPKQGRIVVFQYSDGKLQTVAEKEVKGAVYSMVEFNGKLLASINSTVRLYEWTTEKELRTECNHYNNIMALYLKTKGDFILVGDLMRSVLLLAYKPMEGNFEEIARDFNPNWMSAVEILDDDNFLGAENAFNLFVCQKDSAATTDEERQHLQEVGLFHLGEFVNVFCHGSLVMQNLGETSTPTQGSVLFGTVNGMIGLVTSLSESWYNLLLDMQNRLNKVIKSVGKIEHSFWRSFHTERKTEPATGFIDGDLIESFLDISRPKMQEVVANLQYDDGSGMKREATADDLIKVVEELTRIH
In short: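 Cultured cells were rinsed once in cold PBS and lysed in cold RIPA buffer containing protease and phosphatase inhibitors, with gentle agitation at 4° C. for 30 min. Lysates were centrifuged at 13,000 rpm for 10 min at 4° C., and protein was quantified by BCA. Samples were then separated by SDS-PAGE, detected with ECL, and the CDK4 bands quantified in Image Lab.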

SMILES | CyclinD1 Degradation (200 nM) [1] | inhibition at 0.2 µM ([2]; Calu-1 cells, 200 nM, 16 hours) | CyclinD1 Degradation (10 μM) [1] | inhibition at 10 µM ([2]; Calu-1 cells, 16 hours) | inhibition at 0.2 µM ([2]; Calu-1, 16 h)
COc1ccc(NC(=O)c2ccccc2NC(=O)CCOCCN2CCC(NC(=O)CN3CCN(c4ccc(Nc5ncc6c(C)c(C(C)=O)c(=O)n(C7CCCC7)c6n5)nc4)CC3)CC2)nn1 [CPD-348, 2-(3-(2-(4-(2-(4-(6-((6-Acetyl-8-cyclopentyl-5-methyl-7-oxo-7,8-dihydropyrido[2,3-d]pyrimidin-2-yl)amino)pyridin-3-yl)piperazin-1-yl)acetamido)piperidin-1-yl)ethoxy)propanamido)-N-(6-methoxypyridazin-3-yl)benzamide] | D (protein percentage degradation <30%) | < 30% | – | – | –
Cc1nc(NC(=O)c2ccccc2NC(=O)CCOCCOCCNC(=O)CN2CCN(c3ccc(Nc4ncc5cc6n(c5n4)C4(CCCCC4)CNC6=O)nc3)CC2)sc1C [CPD-323, N-(4,5-Dimethylthiazol-2-yl)-2-(3-(2-(2-(2-(4-(6-((6′-oxo-7′,8′-dihydro-6′H-spiro[cyclohexane-1,9′-pyrazino[1′,2′:1,5]pyrrolo[2,3-d]pyrimidin]-2′-yl)amino)pyridin-3-yl)piperazin-1-yl)acetamido)ethoxy)ethoxy)propanamido)benzamide] | – | – | A (protein percentage degradation >= 80%) | 50 to 80% | –
CC(=O)c1c(C)c2cnc(Nc3ccc(N4CCN(C(=O)CCOCCNc5cccc(C(=O)Nc6nc(C)c(C)s6)c5C)CC4)cn3)nc2n(C2CCCC2)c1=O [CPD-120, 3-((2-(3-(4-(6-((6-Acetyl-8-cyclopentyl-5-methyl-7-oxo-7,8-dihydropyrido[2,3-d]pyrimidin-2-yl)amino)pyridin-3-yl)piperazin-1-yl)-3-oxopropoxy)ethyl)amino)-N-(4,5-dimethylthiazol-2-yl)-2-methylbenzamide] | D (protein percentage degradation <30%) | – | – | – | < 30%
Cc1nc(NC(=O)c2ccccc2NC(=O)CCOCCOCCOCCOCCOCCOCCNC(=O)CN2CCN(c3ccc(Nc4ncc5cc6n(c5n4)C4(CCCCC4)CNC6=O)nc3)CC2)sc1C [CPD-327, N-(4,5-Dimethylthiazol-2-yl)-2-(2-oxo-1-(4-(6-((6′-oxo-7′,8′-dihydro-6′H-spiro[cyclohexane-1,9′-pyrazino[1′,2′:1,5]pyrrolo[2,3-d]pyrimidin]-2′-yl)amino)pyridin-3-yl)piperazin-1-yl)-6,9,12,15,18,21-hexaoxa-3-azatetracosan-24-amido)benzamide] | – | – | A (protein percentage degradation >= 80%) | 50 to 80% | –
CC(=O)c1c(C)c2cnc(Nc3ccc(N4CCN(CC(=O)NCCOCCOCCOCCOCCOCCNc5ccc(C(=O)Nc6ncc(F)s6)c(C)c5)CC4)cn3)nc2n(C2CCCC2)c1=O [CPD-028, 4-((1-(4-(6-((6-Acetyl-8-cyclopentyl-5-methyl-7-oxo-7,8-dihydropyrido[2,3-d]pyrimidin-2-yl)amino)pyridin-3-yl)piperazin-1-yl)-2-oxo-6,9,12,15,18-pentaoxa-3-azaicosan-20-yl)amino)-N-(5-fluorothiazol-2-yl)-2-methylbenzamide] | D (protein percentage degradation <30%) | < 30% | – | – | –
CC(=O)c1c(C)c2cnc(Nc3ccc(N4CCN(CC(=O)NCCOCCOCCC(=O)Nc5c(C(=O)Nc6ccc(C)cn6)ccc6[nH]ccc56)CC4)cn3)nc2n(C2CCCC2)c1=O [CPD-361, 4-(3-(2-(2-(2-(4-(6-((6-acetyl-8-cyclopentyl-5-methyl-7-oxo-7,8-dihydropyrido[2,3-d]pyrimidin-2-yl)amino)pyridin-3-yl)piperazin-1-yl)acetamido)ethoxy)ethoxy)propanamido)-N-(5-methylpyridin-2-yl)-1H-indole-5-carboxamide] | A (protein percentage degradation >=80%) | 50 to 80% | – | – | –
CC(=O)c1c(C)c2cnc(Nc3ccc(N4CCN(CC(=O)NCCOCCOCCC(=O)Nc5ccccc5C(=O)Nc5nnc(C)s5)CC4)cn3)nc2n(C2CCCC2)c1=O [CPD-367, 2-(3-(2-(2-(2-(4-(6-((6-Acetyl-8-cyclopentyl-5-methyl-7-oxo-7,8-dihydropyrido[2,3-d]pyrimidin-2-yl)amino)pyridin-3-yl)piperazin-1-yl)acetamido)ethoxy)ethoxy)propanamido)-N-(5-methyl-1,3,4-thiadiazol-2-yl)benzamide] | D (protein percentage degradation <30%) | < 30% | – | – | –
CC(=O)c1c(C)c2cnc(Nc3ccc(N4CCN(CCOCCOCCOCCC(=O)Nc5ccccc5C(=O)Nc5nc(C)c(C)s5)CC4)cn3)nc2n(C2CCCC2)c1=O [CPD-178, 2-(3-(2-(2-(2-(4-(6-((6-Acetyl-8-cyclopentyl-5-methyl-7-oxo-7,8-dihydropyrido[2,3-d]pyrimidin-2-yl)amino)pyridin-3-yl)piperazin-1-yl)ethoxy)ethoxy)ethoxy)propanamido)-N-(4,5-dimethylthiazol-2-yl)benzamide] | D (protein percentage degradation <30%) | – | – | – | < 30%
CC(=O)c1c(C)c2cnc(Nc3ccc(N4CCN(CC(=O)NCCOCCOCCOCCNC(=O)CNc5ccc(C(=O)Nc6ncc(C)s6)c(C)c5)CC4)cn3)nc2n(C2CCCC2)c1=O [CPD-018, 4-((17-(4-(6-((6-Acetyl-8-cyclopentyl-5-methyl-7-oxo-7,8-dihydropyrido[2,3-d]pyrimidin-2-yl)amino)pyridin-3-yl)piperazin-1-yl)-2,16-dioxo-6,9,12-trioxa-3,15-diazaheptadecyl)amino)-2-methyl-N-(5-methylthiazol-2-yl)benzamide] | C (protein percentage degradation <50%, and >=30%) | 30 to 50% | – | – | –
CC(=O)c1nc(NC(=O)c2ccc(NCCOCCOCCOCCOCCOCCNC(=O)CN3CCN(c4ccc(Nc5ncc6c(C)c(C(C)=O)c(=O)n(C7CCCC7)c6n5)nc4)CC3)cc2C)sc1C [CPD-045, N-(4-Acetyl-5-methylthiazol-2-yl)-4-((1-(4-(6-((6-acetyl-8-cyclopentyl-5-methyl-7-oxo-7,8-dihydropyrido[2,3-d]pyrimidin-2-yl)amino)pyridin-3-yl)piperazin-1-yl)-2-oxo-6,9,12,15,18-pentaoxa-3-azaicosan-20-yl)amino)-2-methylbenzamide] | A (protein percentage degradation >=80%) | 50 to 80% | – | – | –
CC(=O)c1c(C)c2cnc(Nc3ccc(N4CCN(CC(=O)NCCCCCCCNC(=O)c5ccc(C(=O)Nc6ncc(C)s6)c(C)c5)CC4)cn3)nc2n(C2CCCC2)c1=O [CPD-048, N^4-(7-(2-(4-(6-((6-Acetyl-8-cyclopentyl-5-methyl-7-oxo-7,8-dihydropyrido[2,3-d]pyrimidin-2-yl)amino)pyridin-3-yl)piperazin-1-yl)acetamido)heptyl)-2-methyl-N^1-(5-methylthiazol-2-yl)terephthalamide] | D (protein percentage degradation <30%) | < 30% | – | – | –
CC(=O)c1c(C)c2cnc(Nc3ccc(N4CCN(CC(=O)NCCOCCOCCC(=O)Nc5ccccc5C(=O)Nc5ccn(C)n5)CC4)cn3)nc2n(C2CCCC2)c1=O [CPD-068, 2-(3-(2-(2-(2-(4-(6-((6-Acetyl-8-cyclopentyl-5-methyl-7-oxo-7,8-dihydropyrido[2,3-d]pyrimidin-2-yl)amino)pyridin-3-yl)piperazin-1-yl)acetamido)ethoxy)ethoxy)propanamido)-N-(1-methyl-1H-pyrazol-3-yl)benzamide] | A (protein percentage degradation >=80%) | 50 to 80% | – | – | –
CC(=O)c1c(C)c2cnc(Nc3ccc(N4CCN(CC(=O)NCCOCCOCCC(=O)Nc5cc6c(cc5C(=O)Nc5ccc(C)cn5)CCN6)CC4)cn3)nc2n(C2CCCC2)c1=O [CPD-360, 6-(3-(2-(2-(2-(4-(6-((6-Acetyl-8-cyclopentyl-5-methyl-7-oxo-7,8-dihydropyrido[2,3-d]pyrimidin-2-yl)amino)pyridin-3-yl)piperazin-1-yl)acetamido)ethoxy)-ethoxy)propanamido)-N-(5-methylpyridin-2-yl)indoline-5-carboxamide] | A (protein percentage degradation >=80%) | > 80% | – | – | –
CC(=O)c1c(C)c2cnc(Nc3ccc(N4CCN(CC(=O)NCCCCCNc5cc(Cl)ccc5C(=O)Nc5ccc(C)c(C6CC6)n5)CC4)cn3)nc2n(C2CCCC2)c1=O [CPD-378, 2-((5-(2-(4-(6-((6-acetyl-8-cyclopentyl-5-methyl-7-oxo-7,8-dihydropyrido[2,3-d]pyrimidin-2-yl)amino)pyridin-3-yl)piperazin-1-yl)acetamido)pentyl)amino)-4-chloro-N-(6-cyclopropyl-5-methylpyridin-2-yl)benzamide] | B (protein percentage degradation <80%, and >=50%) | < 30% | – | – | –
CNc1ccc(C(=O)Nc2nc(C)c(C)s2)c(NCCCCCCCNC(=O)CN2CCN(c3ccc(Nc4ncc5c(C)c(C(C)=O)c(=O)n(C6CCCC6)c5n4)nc3)CC2)c1 [CPD-370, 2-((7-(2-(4-(6-((6-Acetyl-8-cyclopentyl-5-methyl-7-oxo-7,8-dihydropyrido[2,3-d]pyrimidin-2-yl)amino)pyridin-3-yl)piperazin-1-yl)acetamido)heptyl)amino)-N-(4,5-dimethylthiazol-2-yl)-4-(methylamino)benzamide] | A (protein percentage degradation >=80%) | > 80% | – | – | –
